Experimental data taken from PubChem BioAssay (NCI).
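How tested: cells in 96-well plates exposed to compound for 48 hours at five concentrations. At the GI50, growth is halved. TGI is the concentration that stops growth completely.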

Key:
Assay in all cases: NCI anticancer screen, dose series, 48 h
SN12C renal = tested on: SN12C renal
BT-549 breast = tested on: BT-549 breast
LOX IMVI melanoma = tested on: LOX IMVI melanoma
MDA-MB-435 = tested on: MDA-MB-435
SK-OV-3 ovarian = tested on: SK-OV-3 ovarian
SW-620 colon = tested on: SW-620 colon
HCT-116 colon = tested on: HCT-116 colon
NCI/ADR-RES ovarian = tested on: NCI/ADR-RES ovarian
SF-268 CNS = tested on: SF-268 CNS
SK-MEL-5 melanoma = tested on: SK-MEL-5 melanoma
SR leukemia = tested on: SR leukemia
UACC-62 melanoma = tested on: UACC-62 melanoma
RPMI-8226 leukemia = tested on: RPMI-8226 leukemia
UO-31 renal = tested on: UO-31 renal
COLO 205 colon = tested on: COLO 205 colon
SNB-19 CNS = tested on: SNB-19 CNS
ACHN renal = tested on: ACHN renal
OVCAR-3 ovarian = tested on: OVCAR-3 ovarian
NCI-H23 lung = tested on: NCI-H23 lung
HL-60(TB) leukemia = tested on: HL-60(TB) leukemia
HS 578T breast = tested on: HS 578T breast
OVCAR-5 ovarian = tested on: OVCAR-5 ovarian
MOLT-4 leukemia = tested on: MOLT-4 leukemia
RXF 393 renal = tested on: RXF 393 renal
U251 CNS = tested on: U251 CNS
PC-3 prostate = tested on: PC-3 prostate
SNB-75 CNS = tested on: SNB-75 CNS
UACC-257 melanoma = tested on: UACC-257 melanoma
T-47D breast = tested on: T-47D breast
HOP-92 NSCLC = tested on: HOP-92 NSCLC
HT29 colon = tested on: HT29 colon
MDA-MB-231 breast = tested on: MDA-MB-231 breast
IGROV1 ovarian = tested on: IGROV1 ovarian
MALME-3M melanoma = tested on: MALME-3M melanoma
A498 renal = tested on: A498 renal
M14 melanoma = tested on: M14 melanoma
A549 NSCLC = tested on: A549 NSCLC
DU-145 prostate = tested on: DU-145 prostate
SF-539 CNS = tested on: SF-539 CNS
SK-MEL-2 melanoma = tested on: SK-MEL-2 melanoma
OVCAR-4 ovarian = tested on: OVCAR-4 ovarian
NCI-H522 lung = tested on: NCI-H522 lung
OVCAR-8 ovarian = tested on: OVCAR-8 ovarian
CAKI-1 renal = tested on: CAKI-1 renal
SK-MEL-28 melanoma = tested on: SK-MEL-28 melanoma
SF-295 CNS = tested on: SF-295 CNS
MCF7 breast = tested on: MCF7 breast
CCRF-CEM leukemia = tested on: CCRF-CEM leukemia
NCI-H460 lung = tested on: NCI-H460 lung
KM12 colon = tested on: KM12 colon
EKVX NSCLC = tested on: EKVX NSCLC
K-562 leukemia = tested on: K-562 leukemia
HOP-62 NSCLC = tested on: HOP-62 NSCLC
NCI-H226 lung = tested on: NCI-H226 lung
TK-10 renal = tested on: TK-10 renal
HCT-15 colon = tested on: HCT-15 colon
HCC-2998 colon = tested on: HCC-2998 colon
786-0 renal = tested on: 786-0 renal

C#CCn1cccc1CNc1ccc(OC)cc1
GI50 (SN12C renal): > 100 µM | TGI (SN12C renal): > 100 µM | GI50 (BT-549 breast): 57 µM | TGI (BT-549 breast): > 100 µM | GI50 (LOX IMVI melanoma): 56.9 µM | TGI (LOX IMVI melanoma): > 100 µM | GI50 (MDA-MB-435): 78.9 µM | TGI (MDA-MB-435): > 100 µM | GI50 (SK-OV-3 ovarian): > 100 µM | TGI (SK-OV-3 ovarian): > 100 µM | GI50 (SW-620 colon): > 100 µM | TGI (SW-620 colon): > 100 µM | GI50 (HCT-116 colon): 75.7 µM | TGI (HCT-116 colon): > 100 µM | GI50 (NCI/ADR-RES ovarian): > 100 µM | TGI (NCI/ADR-RES ovarian): > 100 µM | GI50 (SF-268 CNS): > 100 µM | TGI (SF-268 CNS): > 100 µM | GI50 (SK-MEL-5 melanoma): 67.8 µM | TGI (SK-MEL-5 melanoma): > 100 µM | GI50 (SR leukemia): > 100 µM | TGI (SR leukemia): > 100 µM | GI50 (UACC-62 melanoma): 74.1 µM | TGI (UACC-62 melanoma): > 100 µM | GI50 (RPMI-8226 leukemia): 25 µM | TGI (RPMI-8226 leukemia): > 100 µM | GI50 (UO-31 renal): 39.1 µM | TGI (UO-31 renal): > 100 µM | GI50 (COLO 205 colon): > 100 µM | TGI (COLO 205 colon): > 100 µM | GI50 (SNB-19 CNS): > 100 µM | TGI (SNB-19 CNS): > 100 µM | GI50 (ACHN renal): 97.2 µM | TGI (ACHN renal): > 100 µM | GI50 (OVCAR-3 ovarian): 64.4 µM | TGI (OVCAR-3 ovarian): > 100 µM | GI50 (NCI-H23 lung): 46.4 µM | TGI (NCI-H23 lung): > 100 µM | GI50 (HL-60(TB) leukemia): 34.6 µM | TGI (HL-60(TB) leukemia): > 100 µM | GI50 (HS 578T breast): > 100 µM | TGI (HS 578T breast): > 100 µM | GI50 (OVCAR-5 ovarian): > 100 µM | TGI (OVCAR-5 ovarian): > 100 µM | GI50 (MOLT-4 leukemia): > 100 µM | TGI (MOLT-4 leukemia): > 100 µM | GI50 (RXF 393 renal): > 100 µM | TGI (RXF 393 renal): > 100 µM | GI50 (U251 CNS): > 100 µM | TGI (U251 CNS): > 100 µM | GI50 (PC-3 prostate): 16 µM | TGI (PC-3 prostate): > 100 µM | GI50 (SNB-75 CNS): > 100 µM | TGI (SNB-75 CNS): > 100 µM | GI50 (UACC-257 melanoma): 45.5 µM | TGI (UACC-257 melanoma): > 100 µM | GI50 (T-47D breast): 37.8 µM | TGI (T-47D breast): > 100 µM | GI50 (HOP-92 NSCLC): 2.94 µM | TGI (HOP-92 NSCLC): > 100 µM | GI50 (HT29 colon): > 100 µM | TGI (HT29 colon): > 100 µM | GI50 (MDA-MB-231 breast): > 100 µM | TGI (MDA-MB-231 breast): > 100 µM | GI50 (IGROV1 ovarian): 53.7 µM | TGI (IGROV1 ovarian): > 100 µM | GI50 (MALME-3M melanoma): > 100 µM | TGI (MALME-3M melanoma): > 100 µM | GI50 (A498 renal): 8.54 µM | TGI (A498 renal): > 100 µM | GI50 (M14 melanoma): 82 µM | TGI (M14 melanoma): > 100 µM | GI50 (A549 NSCLC): > 100 µM | TGI (A549 NSCLC): > 100 µM | GI50 (DU-145 prostate): > 100 µM | TGI (DU-145 prostate): > 100 µM | GI50 (SF-539 CNS): > 100 µM | TGI (SF-539 CNS): > 100 µM | GI50 (SK-MEL-2 melanoma): > 100 µM | TGI (SK-MEL-2 melanoma): > 100 µM | GI50 (OVCAR-4 ovarian): 28.7 µM | TGI (OVCAR-4 ovarian): > 100 µM | GI50 (NCI-H522 lung): 41.6 µM | TGI (NCI-H522 lung): > 100 µM | GI50 (OVCAR-8 ovarian): > 100 µM | TGI (OVCAR-8 ovarian): > 100 µM | GI50 (CAKI-1 renal): 50 µM | TGI (CAKI-1 renal): > 100 µM | GI50 (SK-MEL-28 melanoma): > 100 µM | TGI (SK-MEL-28 melanoma): > 100 µM | GI50 (SF-295 CNS): > 100 µM | TGI (SF-295 CNS): > 100 µM | GI50 (MCF7 breast): 79.6 µM | TGI (MCF7 breast): > 100 µM | GI50 (CCRF-CEM leukemia): 41 µM | TGI (CCRF-CEM leukemia): > 100 µM | GI50 (NCI-H460 lung): > 100 µM | TGI (NCI-H460 lung): > 100 µM | GI50 (KM12 colon): 51.7 µM | TGI (KM12 colon): > 100 µM | GI50 (EKVX NSCLC): 25.5 µM | TGI (EKVX NSCLC): > 100 µM | GI50 (K-562 leukemia): 44.6 µM | TGI (K-562 leukemia): > 100 µM | GI50 (HOP-62 NSCLC): > 100 µM | TGI (HOP-62 NSCLC): > 100 µM | GI50 (NCI-H226 lung): > 100 µM | TGI (NCI-H226 lung): > 100 µM | GI50 (TK-10 renal): > 100 µM | TGI (TK-10 renal): > 100 µM | GI50 (HCT-15 colon): > 100 µM | TGI (HCT-15 colon): > 100 µM | GI50 (HCC-2998 colon): > 100 µM | TGI (HCC-2998 colon): > 100 µM | GI50 (786-0 renal): > 100 µM | TGI (786-0 renal): > 100 µM
